These results are taken from patent publication US20160095837A1, “MODULATION OF MITOCHONDRIAL CALCIUM UNIPORTER ACTIVITY FOR TREATING AND PREVENTING ARRHYTHMIAS” (priority 2014, published 2016).

Holding throughout (type): cell-based, mouse
The subject of experiment [1] is SERCA2a activity ([Ca2+]cyto decline). The experiment can be described thus: Cytoplasmic Ca2+ transient decay (Fura-2 AM) in SAN cells. As to the method: (§1) SAN cells were placed in Tyrode's solution at 36±0.5° C. and were identified by their characteristic morphology (spindle or spider shape) and spontaneous activity. SAN cells were identified electrophysiologically by spontaneous action potentials with a slow depolarizing phase 4 and the hyperpolarization-activated current (If).^27 Spontaneous action potentials, If and ICa were recorded using the perforated (amphotericin B or β-escin in studies requiring dialysis of Ru360 and/or ATP) patch-clamp technique^28 on single SAN cells at 36±0.5° C. in Tyrode's solution. Intracellular Ca^2+ transients were recorded from single SAN cells using Fura-2 AM excited at 340 nm and 380 nm and emitted and 510 nm. Endogenous NADH from single SAN cells was measured by excitation at 350 nm and recording emitted light at 460 nm.^29 Mitochondrial Ca^2+ was measured at 535 nm from mt-pericam expressing SAN cells exited at 415 nm^20. Mitochondrial Ca^2+ entry was measured in cell membrane permeabilized cardiomyocytes isolated from DN-MCU transgenic, wild type mice and from HEK293 cells using Calcium green-5N^30.
Cytosolic Ca^2+ levels were recorded from Fura-2-loaded cells, excited at wavelengths of 340 and 380 nm, and imaged with a 510 nm long-pass filter. Single isolated SAN cells were loaded with 0.1 μM Fura-2 AM for 20 minutes, and then perfused for 20 minutes to de-esterfy the Fura-2 AM in normal Tyrode's solution. After placement on a recording chamber, the cells were perfused in normal Tyrode's solution at 36° C.±0.5. Spindle-shaped, spontaneously beating cells were chosen for experiments. Action potential recording was performed simultaneously.

Experiment [2] has as its system sinoatrial nodal (SAN) pacemaker cells. The experiment can be described thus: Spontaneous action potential rate of single SAN cells (perforated patch clamp). To be noted: for SAN activity response to ISO: SR Ca2+ release eliminated by ryanodine or SERCA2a inhibited by thapsigargin; for SAN cell beating rate at baseline: no ISO (FIG. 10a). The protocol:
as §1
Isolation of single SAN cells from mice was performed according to previously published methods^22, 27, 31 with minor modifications. Mice were administered an intraperitoneal injection of avertin (20 μl/g) and monitored until unresponsive. The heart was excised and placed into Tyrode's solution (35° C.), consisting of (mM) 140 NaCl, 5.0 HEPES, 5.5 Glucose, 5.4 KCl, 1.8 CaCl2, and 1.0 MgCl2. The pH was adjusted to 7.4 with NaOH. […] The SAN was cut into smaller pieces, which were transferred and rinsed in a solution containing (mM) 140 NaCl, 5.0 HEPES, 5.5 Glucose, 5.4 KCl, 0.2 CaCl2, 0.5 MgCl2, 1.2 KH2PO4, 50 Taurine and 1 mg/ml bovine serum albumin (BSA), with pH adjusted to 7.4 using NaOH. SAN tissue pieces were digested in 5 ml of solution containing collagenase type I, elastase (Worthington), and protease type XIV (Sigma) for 20-30 min. The tissue was transferred to 10 ml of Kraft-Bruhe (KB) medium containing (mM) 100 potassium glutamate, 5.0 HEPES, 20 Glucose, 25 KCl, 10 potassium aspartate, 2.0 MgSO4, 10 KH2PO4, 20 taurine, 5 creatine, 0.5 EGTA, and 1 mg/ml BSA, with pH adjusted to 7.2 using KOH. The tissue was agitated using a glass pipette for 10 min. The cells were stored at 4° C. and studied within 7 hours.
SAN cells were placed in Tyrode's solution at 36±0.5° C. SAN cells were identified by their characteristic morphology (spindle or spider shape) and spontaneous activity in all single cell experiments. SAN cells were also identified electrophysiologically by typical spontaneous action potentials with slow depolarizing phase 4 and the hyperpolarization-activated current (If) in electrophysiological experiments.
Spontaneous action potentials (APs) and If were recorded using the perforated (amphotericin B or β-escin) patch-clamp technique^28 on single SAN cell at 36±0.5° C. in Tyrode's solution (0.5 mM BaCl2 was added to the bath solution when recording If^32). The pipette was filled with (mM) 130 potassium aspartate, 10 NaCl, 10 HEPES, 0.04 CaCl2, amphotericin B 240 μg/ml with pH adjusted to 7.2 with KOH. SAN cells with stable APs lasting at least 5 min were included in the experiments. β-escin 25 μM was substituted for amphotericin B to allow dialysis of Ru360 or ATP. When recording If, membrane potential was held at −35 mV, the voltage steps were applied for 5 s ranging from −125 mV to −45 mV in 10 mV increments or vice versa.^33 ICa was measured using the perforated patch technique at […] as previously described.^22 ICa was confirmed by its sensitivity to Nifedipine 5 μM. Depolarizing voltage pulses (300 ms in duration) to various potentials (−60 mV to 60 mV in 10 mV step) were applied after 50 ms at −40 mV to inactivate INa from a holding potential of −70 mV. […]
Background: The patch-clamp technique gives a direct electrical read-out from membranes.

In a further experiment the test system is NADH. The experiment is described as follows: NADH autofluorescence in SAN cells. As to conditions: ISO 100 nM. The protocol:
as §1
The autofluorescence of endogenous NADH, which derives primarily from mitochondria,^29,35 was measured as described^29. NADH was excited at 350 nm (AT350/SOX, Chroma) and fluorescence was recorded at 460 nm (ET460/50m and T400LP, Chroma). […]

The test system of experiment [3] is mitochondrial Ca2+ concentration ([Ca2+]mito). The experiment is described as follows: Mitochondrial Ca2+ measurement with mt-pericam in cultured SAN cells. As to conditions: ISO 100 nM. The protocol: as §1
Freshly isolated mouse SAN tissue was cut into small pieces and put into 35 mm tissue culture plates with DMEM. […] Expression of the recombinant ratio-5mt-pericam and DN-MCU in SAN cells was detected by GFP fluorescence. […]

The mark [4] stands for this setting: ATP dialysis, SAN cells from mice expressing phospholamban N27A.

As to `Nc1ncnc2c1ncn2[C@@H]1O[C@H](COP(=O)(O)OP(=O)(O)OP(=O)(O)O)[C@@H](O)[C@H]1O` [ATP], in experiment [1] (ATP 4 mM co-dialysis with Ru360, relative to ISO-stimulated values without Ru360), the “Rate of [Ca2+]cyto decline after ISO with Ru360 and ATP co-dialysis” value is recorded as “restored”. Besides, in experiment [1] (setting [4]), the “Rate of [Ca2+]cyto decline in N27A SAN cells” value is “did not significantly increase”. Besides, the “SAN cell rate response to ISO, ATP dialysis 8 mM” value in experiment [2] (ATP dialysis 8 mM) was “does not enhance”. In addition, the “SAN rate responses to ISO, ATP dialysis alone” value in experiment [2] (ATP dialysis without Ru360) is recorded as “had no affect”. In addition, the “SAN action potential frequency in N27A SAN cells” value in experiment [2] (setting [4]) is given as “did not significantly increase”. For the same compound, in experiment [2] (co-dialysis with ATP 4 mM and Ru360), the “Inhibitory effect of Ru360 on SAN cell action potential frequency responses to ISO, with ATP co-dialysis” value is given as “reversed”. In addition, the “DN-MCU dependent loss of the ISO rate response, with ATP co-dialysis” value in experiment [2] (cultured SAN cells expressing DN-MCU, ATP co-dialysis) is “rescued”. Besides, the “Basal SAN cell rates” value in experiment [2] (dialysis, no ISO) is “neither Ru360 nor ATP had any affect”.
In the case of `CC(C)NCC(O)c1ccc(O)c(O)c1` (stereo not shown) [ISO, isoproterenol], the NADH fluorescence entry in the experiment with NADH is recorded as “increased”. In experiment [1] (ISO vs control bath solution), the “Rate of decline in [Ca2+]cyto” value was “significantly increased”. Also, the “[Ca2+]mito” value in experiment [3] is recorded as “caused an increase”. For the same compound, the “Rate of action potential initiation” value in experiment [2] (ISO, concentration-dependent) is reported as “increased”.
Consider `C/C=C(/C)C(=O)O[C@H]1C(C)=C2[C@H]([C@@H]1OC(=O)CCCCCCC)[C@@](C)(OC(C)=O)C[C@H](OC(=O)CCC)[C@@]1(O)[C@H]2OC(=O)[C@@]1(C)O` [thapsigargin], for which, in experiment [2], the “SAN activity response to ISO” value is listed as “significantly reduced” and the “SAN cell beating rate at baseline” value is reported as “reduce”.
The like results for ryanodine were, in that order, “significantly reduced” and “reduce”.
